From article PMC9817077, “Simple, Reliable Protocol for High-Yield Solubilization of Seedless Amyloid-β Monomer” (ACS Chemical Neuroscience, 2022)

What was measured:
Type in all cases: physicochemical
[1] = LC–MS check for chemical modification at high pH; conditions: 50 mM NaOH
[2] = Global fitting of ThT self-assembly curves to nucleated polymerization models; conditions: global fit
Excerpt: To test whether an equivalent analysis favored
106 four models to ﬁt the experimental data. Each model was globally ﬁtted, with all kinetic 107 parameters shared across initial monomer concentrations.
Firstly, we tested the Oosawa model (19). In this model, ﬁbrils form by primary nucle-ation, which behaves as annthc -order multimerization process. Fibrils then grow by stepwise addition of monomers to the ﬁbril end, which behaves as a second-order association between a ﬁbril and a free monomer. This model admits the exact solution (13, 20) […]
m(0) = 1−sech2/nc 2 λt , (S2)
109 Here, kn is the rate parameter for primary nucleation and k+ is the rate parameter for 110 elongation. As shown in Figure S8(a), the Oosawa model results in a poor ﬁt. Speciﬁcally, 111 the lack of a secondary process means the model cannot produce exponential early-time 112 scaling, and lacks a pronounced lag phase. This […] our observation of exponential 113 early-time kinetics, and the ﬁndings of previous work (16).
Next, we tested models that included a secondary process. Three such processes were considered: fragmentation (13, 14, 21), single-step secondary nucleation (14), and saturable multi-stepsecondarynucleation(17,18). Inallthreecases, theapproximatesolutionhasthe same mathematical form, and the models diﬀer only in the deﬁnitions of certain parameters.
The general equation is (13, 14, 21)
M(t) B− +C+eκt κ˜k∞e−k∞t, (S4) m(0) = 1− B+ +C+eκt B− +C+
Here, λ has the same deﬁnition as Eq. (S3), andκ and k∞ have model-speciﬁc deﬁnitions.
Since fragmentation can be treated as a special case of secondary nucleation (14, 16), we begin with the deﬁnitions for single-step secondary nucleation, […]
114 where k2 is the (n2 + 1)th-order rate constant for formation of a secondary ﬁbril nucleus 115 of eﬀective sizen2, at a rate also proportional to the concentration of monomers already 116 incorporated into ﬁbrils (14).
The correct solution for fragmentation can be obtained by taking the limit n2→ 0 (in practice, setting n2 = 10−3) and substituting (13, 14, 21)
117 wherekf is the rate constant for fragmentation at each possible break point along the length 118 of the ﬁbril. When ﬁtting the fragmentation-dominated model, the value ofkf was con-119 strained such thatkfk+ =knk+× (10−5.5 M)nc/(10−8 M), a constraint that was also applied 120 in (16). This ensures that fragmentation becomes dominant when the ﬁbril mass concen-121 tration M(t)≈ 10 nM for a reaction with initial monomer concentration m(0) =√10 µM, 122 forcing the ﬁtting algorithm to maintain an appreciable level of fragmentation. Without 123 this constraint, kf is simply minimized in order to attain a high concentration-dependence, […]
124 resulting in a ﬁt very similar to that obtained for the Oosawa model (16). […]
used with the modiﬁed deﬁnitions
A(t) =− λ2nc− 2k2k+K2m(0)log [K2 +m(t)n2]n2
125 where K2 is the eﬀective Michaelis constant for secondary nucleation, and2F1 is a hyper-126 geometric function. Note that, unlike traditional Michaelis-Menten kinetics, the rate of 127 saturable secondary nucleation has an nth2 -order rather than a linear dependence on m(t) in 128 the low concentration limit (15, 17, 18).
129 As shown in Figure S8(b), fragmentation succeeds in producing exponential early-time 130 scaling and a pronounced lag phase, but also results in a weak concentration-dependence 131 and an overly sharp approach to the maximum ﬂuorescence intensity. The latter two issues 132 are caused by the insensitivity of fragmentation to depletion of the free monomer, and 133 also lead to a high ﬁtted reaction order of primary nucleation (nc = 5.23), an attempt to 134 compensate for the weak concentration scaling of the secondary process. Had the value 135 of kf been left unconstrained, the ﬁt would instead have done this by minimising the role 136 of the concentration-insensitive secondary pathway, producing a ﬁt similar to Figure S8(a).
138 better ﬁt, as it is able to simultaneously produce exponential early-time scaling, the correct […]

[3] = Removal of HMW material by ultracentrifugation, AF4-MALS and ThT; conditions: for integrated HMW UV signal after cross-flow, equivalent mass of Aβ(1-42): 200 µl injected
Protocol: 4 S3 Removal of HMW material from 50 mM NaOH Aβ
5 preparations by ultracentrifugation
8 that attempts to remove any putative seed or oligomers had no impact on the self-assembly 9 kinetics. To complement this, and further explore the nature of the HMW contaminant that 10 eluted after cross-ﬂow in AF4 runs, we removed the HMW material by ultracentrifugation 11 and examined the eﬀect on the self-assembly kinetics. Firstly, an Aβ(1-42) sample was re-12 solubilized to a concentration of 1 mg/ml peptide by sonication for 5 min in 50 mM NaOH.
14 NaOH, centrifuged at 436,000g for 1 h, and examined by AF4-MALS and ThT assays. The 15 dilution was carried out to obtain a suﬃciently large volume for ultracentrifugation. As a 16 control, another aliquot from the same re-solubilized sample was diluted in the same manner, 17 and incubated in a centrifuge tube for the same period of time without ultracentrifugation.
18 Both samples were kept at 21 °C during ultracentrifugation/incubation. For the AF4-MALS 19 experiments, a larger-than-usual injection volume of 200 µl was used to ensure the same mass […]
21 the elugram. For the ThT assays, the buﬀer was pre-adjusted to account for the increased […]
24 the integral of the UV signal after cross-ﬂow; in the control, the integrated HMW signal was […]
26 so the true mass is unknown), whereas in the centrifuged sample the integral was equivalent […]
Similarly, ultracentrifugation caused an approximately 4× reduction
28 in the integral of the LS 90o signal. Although the composition and degree of homogeneity of […]
30 that the majority of this material was removed. Despite removal of this material, the treated […]
One possibility is that the HMW fraction
However, the fact that the full expected 20 µg of
Instead, it may consist of small quantities of dust
36 or pre-existing contaminants in the vials, which were resistant to 50 mM NaOH but had no 37 observable seeding potential. […]
the self-assembly kinetics. Panels show (a) the UV280 signal, (b) the LS 90o signal, (c) the approximate Mw distribution, derived from MALS analysis of the ROI from 3.3-12.0 min using a linear Zimm ﬁtting approach, and (d) the corresponding ThT self-assembly kinetics […]
Color scheme: red, 1 mg/ml sample before dilution (not included in ThT assay); green, 10× diluted 0.1 mg/ml sample, incubated for 1 h before use in experiments; blue, 10× diluted 0.1 mg/ml sample, centrifuged at 436,000g for 1 h and then used in experiments.
(1 picture or pasted object on this page, not shown here)

[4] = 436,000g for 1 h against control

Aβ(1-42): Ultrapure recombinant Aβ(1-42) purchased from rPeptide, lyophilized from HFIP; disordered amyloid-forming peptide
difference between mass spectra of samples sonicated for 5 and 30 min [1]: no obvious difference
nc ([2]; fragmentation model, kf constrained): 5.23
nc ([2]; primary nucleation only (Oosawa model), 1.5–6.0 μM, sample 50-5-N-13): 2.37
K2 (effective Michaelis constant for secondary nucleation) ([2]; saturable secondary nucleation): 2.74 µM
n2 ([2]; saturable secondary nucleation): 2.37
nc ([2]; saturable secondary nucleation, nc = n2 constrained): 2.37
n2 ([2]; single-step secondary nucleation): 1.68
nc ([2]; single-step secondary nucleation, nc = n2 constrained): 1.68
integrated HMW UV signal after cross-flow, equivalent mass of Aβ(1-42) ([3]; 0.1 mg/ml in 5 mM NaOH, centrifuged at 436,000g for 1 h, 21 °C): 0.365 µg
reduction in the integral of the LS 90° signal by ultracentrifugation [3, 4]: approximately 4 ×
reduction in the integral of the UV signal after cross-flow by ultracentrifugation [3, 4]: approximately 3 ×
integrated HMW UV signal after cross-flow, equivalent mass of Aβ(1-42) ([3]; control: 10× diluted to 0.1 mg/ml in 5 mM NaOH, incubated 1 h at 21 °C without ultracentrifugation): 1.004 µg
